Here are results for four molecules from patent US7772246B2 (Pfizer Inc., priority 2007, dated 2010).

Test [1] deals with T1, b-Raf (Homo sapiens, UniProt P15056).
T1 construct: Full-length wild type b-Raf is expressed in recombinant form and purified from bacterial or insect cells; made in house; host or cells: bacterial or insect cells
The test is described as follows: Raf biochemical assay (in vitro kinase assay, 32-P transfer from ATP to Mek1). To be noted: full-length wild type b-Raf, Mek1 substrate; for Ki: 25 μM ATP. As to the method: Compounds of the present invention were evaluated for potency against b-Raf using an in vitro kinase assay. Raf kinase activity is measured in vitro by determining transfer of radiolabeled 32-P phosphate from ATP to the specific Raf substrate Mek1. Full-length wild type b-Raf is expressed in recombinant form and purified from bacterial or insect cells. Recombinant Mek1 is purified from E. coli bacterial cells. In one assay format (designated G1), the full-length wild type Mek1 is used as the b-Raf substrate. In a second assay format (designated G2), the full-length K97R Mek1 mutant is used as the b-Raf substrate.
In vitro kinase assays are performed in solution containing the following; 50 mM Hepes (pH 7.4), 5 nM b-Raf, 0.8 μM Mek1, 10 mM MgCl2, 25 μM ATP, 0.002% (v/v) Tween-20, 5 μg/mL leupeptin, 1.2 mM DTT, 2% (v/v) DMSO, 0.2-1.0 μCi [γ-^32P]ATP per well.
The assays are performed in wells of a 96 well polypropylene round bottom plate, each well containing 43.5 μL assay mix and 1.5 μL inhibitor compound or DMSO vehicle. 15 μL of b-Raf mix is added and the plate is shaken on a plate shaker and preincubated for 10 minutes at ambient temperature. The reaction is started by addition of 15 μL ATP mix and shaking. The reaction is terminated after 40 minutes by addition of 25 μL 0.5 M EDTA (pH 7.4).
60 μL of the stopped reaction is transferred to a well of a 96-well nylon 66 Biodyne A membrane Silent Screen filter plate (Nalge/Nunc: 256081). The wells are filtered and washed five times with 0.85% phosphoric acid. The filter is placed in a tray with about 50 mL 0.85% phosphoric acid and gently rotated for 10 minutes on an orbital shaker. The procedure is repeated once with fresh 0.85% phosphoric acid. Five samples of 0.5 μL of ATP mix are also spotted onto filter paper for calculation of specific activity. The filters are air dried for one hour and sandwiched between cellophane wrap on an Amersham Biosciences Storage Phosphor Screen and developed at least over night. The image is read using a Molecular Dynamics Storm 840 phosphoimager. Volumes of spots are calculated using ImageQuant5.1.
Raf kinase activity is calculated from the specific activity of [32-P] ATP, 32-P incorporation into Mek1, and the concentration of b-Raf.

Test [2] addresses T2, b-Raf (Homo sapiens, UniProt P15056, V600E).
T2 construct: endogenous in cells; host or cells: A2058 human melanoma cells
Nature of the test: Raf cellular assay (phospho-Mek1/2 ELISA in A2058 cells). The format is cell-based. The conditions noted are these: Table 2; human melanoma A2058 cells (b-Raf mutation), Mek1/2 Ser217/221 phosphorylation, 1 hour incubation; read-out: pMEK IC50. In a few lines:
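A2058 melanoma cells (B-Raf mutant), seeded overnight in 10% FBS DMEM, were exposed to compounds (11-point 1:3 series, duplicate) for 1 h at 37 °C. Lysates were captured on anti-Mek1-coated plates and Mek1/2 Ser217/221 phosphorylation was read by anti-phospho-Mek1/2 ELISA, HRP/TMB, 450 nm.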
In general terms: ELISA stands for enzyme-linked immunosorbent assay.

As usually defined, the Ki is the dissociation constant of the complex between target and ligand, obtained from inhibition or displacement. The term IC50 denotes the concentration at which inhibition is half-maximal.

T1 sequence (P15056 whole entry): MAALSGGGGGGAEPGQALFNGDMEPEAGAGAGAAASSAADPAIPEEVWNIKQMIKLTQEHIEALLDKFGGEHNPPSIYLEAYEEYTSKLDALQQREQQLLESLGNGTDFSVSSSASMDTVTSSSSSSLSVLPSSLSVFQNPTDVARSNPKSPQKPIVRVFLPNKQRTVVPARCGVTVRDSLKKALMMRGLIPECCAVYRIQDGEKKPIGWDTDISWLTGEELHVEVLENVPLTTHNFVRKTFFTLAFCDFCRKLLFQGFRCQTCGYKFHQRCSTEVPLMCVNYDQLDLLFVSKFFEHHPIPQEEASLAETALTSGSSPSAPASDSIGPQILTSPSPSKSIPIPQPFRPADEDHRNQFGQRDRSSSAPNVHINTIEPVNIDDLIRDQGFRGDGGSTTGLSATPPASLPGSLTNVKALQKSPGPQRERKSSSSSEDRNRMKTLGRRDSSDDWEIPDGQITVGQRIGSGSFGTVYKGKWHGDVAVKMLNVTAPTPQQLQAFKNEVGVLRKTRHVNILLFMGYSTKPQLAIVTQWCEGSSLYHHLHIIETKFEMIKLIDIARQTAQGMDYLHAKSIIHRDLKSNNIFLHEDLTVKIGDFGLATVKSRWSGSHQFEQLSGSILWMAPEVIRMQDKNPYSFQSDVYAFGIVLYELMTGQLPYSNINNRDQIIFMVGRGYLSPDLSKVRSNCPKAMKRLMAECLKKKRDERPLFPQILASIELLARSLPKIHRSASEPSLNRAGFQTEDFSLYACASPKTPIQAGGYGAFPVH
T2 sequence (P15056 whole entry V600E): as the sequence (P15056 whole entry) above, with V600E counted along it

With `C[C@H](O)CNc1nccc(-c2cn(C)nc2-c2cnc3[nH]cc(Cl)c3c2)n1` [Example E-1, (2S)-1-(4-(3-(3-chloro-1H-pyrrolo[2,3-b]pyridin-5-yl)-1-methyl-1H-pyrazol-4-yl)pyrimidin-2-ylamino)propan-2-ol], at b-Raf [1], the Ki came to 1.5 nM. Moreover, the half-maximal inhibitory concentration (IC50) at b-Raf [2] was 223 nM.
In the case of `C[C@H](O)CNc1nccc(-c2cn(CC(F)F)nc2-c2cnc3[nH]cc(Cl)c3c2)n1` [Example E-2, (2S)-1-(4-(3-(3-chloro-1H-pyrrolo[2,3-b]pyridin-5-yl)-1-(2,2-difluoroethyl)-1H-pyrazol-4-yl)pyrimidin-2-ylamino)propan-2-ol], the inhibition at 1 µM on b-Raf [1] (@ 1 μM compound, read-out: b-Raf % inhib @ 1 μM) is 100%. Besides, the Ki on b-Raf [1] is < 0.1 nM. Besides, the concentration for half-maximal inhibition (IC50) at b-Raf [2] is 15 nM.
As for `Cc1[nH]c2ncc(-c3nn(C(C)C)cc3-c3ccnc(NC[C@H](C)O)n3)cc2c1Cl` [Example E-3, (2S)-1-(4-(3-(3-chloro-2-methyl-1H-pyrrolo[2,3-b]pyridin-5-yl)-1-isopropyl-1H-pyrazol-4-yl)pyrimidin-2-ylamino)propan-2-ol], on b-Raf [1], the Ki was determined as 0.6 nM. For the same molecule, the concentration for half-maximal inhibition (IC50) at b-Raf [2] was found to be 165 nM.
Take `C[C@H](O)CNc1nccc(-c2cn(CC3(C)COC3)nc2-c2cnc3[nH]cc(Cl)c3c2)n1` [Example E-4, (2S)-1-(4-(3-(3-chloro-1H-pyrrolo[2,3-b]pyridin-5-yl)-1-((3-methyloxetan-3-yl)methyl)-1H-pyrazol-4-yl)pyrimidin-2-ylamino)propan-2-ol]: the Ki at b-Raf [1] was 1.9 nM. In addition, the 50% inhibitory concentration (IC50) at b-Raf [2] worked out at 188 nM.
